Where “and” joins values, the source holds several entries; their conditions need not be identical. Equal entries are not always repeated.
Test: an = ratio of the nth substance listed
Details: 100 kPa, Liquid, Buoyancy - hydrostatic balance, a2 = 1.3

[F][Al]([F])[F] [aluminum fluoride] + [F-].[K+]
Details | mass density
953.37 K | 1875 kg/m3
953.87 K | 1875 kg/m3
954.03 K | 1875 kg/m3
954.2 K | 1874 kg/m3
954.52 K | 1874 kg/m3
954.85 K | 1873 kg/m3
955.23 K | 1873 kg/m3
955.66 K | 1873 kg/m3
955.95 K | 1873 kg/m3
956.45 K | 1873 kg/m3
957 K | 1872 kg/m3
957.09 K | 1872 kg/m3
957.11 K | 1872 kg/m3
957.15 K | 1872 kg/m3
957.8 K | 1871 kg/m3
958.17 K | 1871 kg/m3
958.39 K | 1870 kg/m3
958.54 K | 1870 kg/m3
958.92 K | 1870 kg/m3
959.36 K | 1870 kg/m3
959.42 K | 1870 kg/m3
959.67 K | 1870 kg/m3
960.14 K | 1869 kg/m3
960.36 K | 1869 kg/m3
961.06 K | 1868 kg/m3
961.27 K | 1868 kg/m3
961.32 K | 1868 kg/m3
961.88 K | 1868 kg/m3
961.97 K | 1868 kg/m3
962.58 K | 1867 kg/m3
962.79 K | 1866 kg/m3
962.82 K | 1867 kg/m3
963.09 K | 1867 kg/m3
963.44 K | 1866 kg/m3
963.53 K | 1866 kg/m3
964.23 K | 1865 kg/m3
964.32 K | 1865 kg/m3
964.85 K | 1865 kg/m3
965.05 K | 1865 kg/m3
965.38 K | 1865 kg/m3
965.94 K | 1864 kg/m3
966 K | 1864 kg/m3
966.18 K | 1864 kg/m3
966.56 K | 1864 kg/m3
966.7 K | 1863 kg/m3
967.24 K | 1863 kg/m3
967.73 K | 1862 kg/m3
967.75 K | 1862 kg/m3
968.06 K | 1862 kg/m3
968.94 K | 1862 kg/m3
968.96 K | 1862 kg/m3
969.15 K | 1861 kg/m3
969.33 K | 1861 kg/m3
969.99 K | 1861 kg/m3
970.3 K | 1861 kg/m3
970.44 K | 1860 kg/m3
970.89 K | 1860 kg/m3
970.98 K | 1859 kg/m3
971.14 K | 1860 kg/m3
971.87 K | 1859 kg/m3
972.13 K | 1859 kg/m3
972.25 K | 1859 kg/m3
972.6 K | 1859 kg/m3
972.98 K | 1858 kg/m3
973.21 K | 1858 kg/m3
973.66 K | 1858 kg/m3
973.77 K | 1858 kg/m3
973.95 K | 1857 kg/m3
974.37 K | 1857 kg/m3
974.77 K | 1857 kg/m3
975.15 K | 1856 kg/m3
975.67 K | 1856 kg/m3
975.77 K | 1856 kg/m3
975.97 K | 1856 kg/m3
976.61 K | 1855 kg/m3
976.86 K | 1855 kg/m3
976.9 K | 1855 kg/m3
977.25 K | 1854 kg/m3
977.4 K | 1854 kg/m3
977.66 K | 1852 kg/m3
978.13 K | 1852 kg/m3
978.34 K | 1852 kg/m3
978.99 K | 1852 kg/m3
979.14 K | 1851 kg/m3
979.65 K | 1850 kg/m3
979.83 K | 1851 kg/m3
980.46 K | 1850 kg/m3
980.58 K | 1850 kg/m3
980.92 K | 1850 kg/m3
980.95 K | 1850 kg/m3
981.3 K | 1849 kg/m3
981.38 K | 1849 kg/m3
982.18 K | 1849 kg/m3
982.5 K | 1849 kg/m3
982.75 K | 1848 kg/m3
983.17 K | 1848 kg/m3
983.33 K | 1847 kg/m3
983.99 K | 1847 kg/m3
984.08 K | 1847 kg/m3
984.17 K | 1847 kg/m3
984.63 K | 1846 kg/m3
985 K | 1846 kg/m3
985.5 K | 1846 kg/m3
985.61 K | 1846 kg/m3
986.09 K | 1845 kg/m3
986.53 K | 1845 kg/m3
986.96 K | 1845 kg/m3
987.09 K | 1845 kg/m3
987.31 K | 1844 kg/m3
987.8 K | 1844 kg/m3
988.08 K | 1844 kg/m3
988.26 K | 1844 kg/m3
988.64 K | 1843 kg/m3
988.78 K | 1844 kg/m3
989.33 K | 1843 kg/m3
989.41 K | 1843 kg/m3
990.26 K | 1842 kg/m3
990.32 K | 1842 kg/m3
991.02 K | 1842 kg/m3
991.03 K | 1841 kg/m3
991.17 K | 1842 kg/m3
991.49 K | 1841 kg/m3
992.13 K | 1841 kg/m3
992.28 K | 1840 kg/m3
992.47 K | 1841 kg/m3
992.66 K | 1842 kg/m3
992.84 K | 1842 kg/m3
993.1 K | 1842 kg/m3
993.15 K | 1840 kg/m3
993.49 K | 1839 kg/m3
993.5 K | 1840 kg/m3
993.57 K | 1841 kg/m3
993.62 K | 1840 kg/m3
993.79 K | 1839 kg/m3
993.81 K | 1841 kg/m3
993.83 K | 1841 kg/m3
994.35 K | 1838 kg/m3
994.37 K | 1839 kg/m3
994.52 K | 1838 kg/m3
994.62 K | 1840 kg/m3
995.21 K | 1838 kg/m3
995.25 K | 1840 kg/m3
995.47 K | 1840 kg/m3
995.64 K | 1840 kg/m3
995.66 K | 1838 kg/m3
996.05 K | 1838 kg/m3
996.18 K | 1839 kg/m3
996.21 K | 1838 kg/m3
996.6 K | 1839 kg/m3
996.7 K | 1837 kg/m3
996.81 K | 1836 kg/m3
996.88 K | 1839 kg/m3
997.13 K | 1836 kg/m3
997.4 K | 1836 kg/m3
997.41 K | 1838 kg/m3
997.63 K | 1838 kg/m3
997.84 K | 1837 kg/m3
997.92 K | 1836 kg/m3
997.99 K | 1836 kg/m3
998.24 K | 1835 kg/m3
998.66 K | 1837 kg/m3
998.67 K | 1837 kg/m3
998.83 K | 1835 kg/m3
999.09 K | 1836 kg/m3
999.14 K | 1836 kg/m3
999.24 K | 1836 kg/m3
999.27 K | 1835 kg/m3
999.3 K | 1837 kg/m3
999.38 K | 1837 kg/m3
999.39 K | 1835 kg/m3
999.51 K | 1836 kg/m3
999.7 K | 1834 kg/m3
1000.2 K | 1834 kg/m3
1000.5 K | 1835 kg/m3
1000.8 K | 1833 kg/m3
1000.9 K | 1834 kg/m3
1001.1 K | 1835 kg/m3
1001.3 K | 1834 kg/m3
1001.4 K | 1833 kg/m3
1001.5 K | 1834 kg/m3
1001.6 K | 1833 kg/m3
1001.7 K | 1834 kg/m3
1002.2 K | 1832 kg/m3 and 1833 kg/m3
1002.4 K | 1833 kg/m3
1002.7 K | 1833 kg/m3
1002.9 K | 1832 kg/m3 and 1832 kg/m3
1003.4 K | 1832 kg/m3 and 1832 kg/m3
1003.5 K | 1831 kg/m3
1003.7 K | 1832 kg/m3
1004.2 K | 1831 kg/m3
1004.3 K | 1831 kg/m3 and 1830 kg/m3
1004.8 K | 1831 kg/m3 and 1830 kg/m3
1005 K | 1831 kg/m3
1005.1 K | 1831 kg/m3 and 1830 kg/m3
1005.6 K | 1830 kg/m3
1005.7 K | 1830 kg/m3
1006 K | 1829 kg/m3
1006.3 K | 1830 kg/m3
1006.4 K | 1830 kg/m3
1006.5 K | 1830 kg/m3 and 1829 kg/m3
1006.9 K | 1829 kg/m3 and 1827 kg/m3
1007 K | 1829 kg/m3
1007.1 K | 1828 kg/m3
1007.3 K | 1828 kg/m3
1007.4 K | 1828 kg/m3 and 1829 kg/m3
1007.7 K | 1827 kg/m3
1007.9 K | 1827 kg/m3
1008 K | 1827 kg/m3
1008.2 K | 1827 kg/m3
1008.3 K | 1828 kg/m3
1008.5 K | 1827 kg/m3
1008.8 K | 1827 kg/m3
1009 K | 1827 kg/m3
1009.2 K | 1827 kg/m3
1009.4 K | 1827 kg/m3
1009.6 K | 1826 kg/m3
1009.8 K | 1826 kg/m3
1010 K | 1825 kg/m3
1010.1 K | 1825 kg/m3
1010.3 K | 1825 kg/m3
1010.7 K | 1825 kg/m3
1010.9 K | 1825 kg/m3
1011 K | 1825 kg/m3
1011.1 K | 1825 kg/m3
1011.2 K | 1825 kg/m3
1011.3 K | 1824 kg/m3
1011.6 K | 1823 kg/m3
1011.7 K | 1824 kg/m3
1012 K | 1824 kg/m3
1012.2 K | 1824 kg/m3
1012.4 K | 1824 kg/m3
1012.5 K | 1824 kg/m3
1012.6 K | 1823 kg/m3
1012.9 K | 1824 kg/m3
1013.1 K | 1822 kg/m3
1013.4 K | 1823 kg/m3

— the NIST ThermoML archive (doi:10.1021/acs.jced.8b00157)
